Experimental data taken from patent US20040029965A1, “Formulations for reducing or eliminating toxicity of enviromental hormones containing ursodeoxycholic acid” (priority 2000, published 2004).
Marks after values point to notes of the source that are not given here.

Columns and labels:
C57B1/6J mice [1] = experiment: Hematological changes in mice by a single subcutaneous injection of TCDD; type: in vivo; set-up: NEU / LYM / PLT: unit not given here
Description: (§1) Male C57B1/6J mice of 5 weeks old having the average weight of 18-22 g which had been bred in CRJ (Charles River in Japan) were purchased and used in this example as experimental animals. Those mice were acclimated under the constant breeding condition, i.e. the temperature of 24±1° C., the humidity of 60±10% and the light and darkness cycle of 12 hours, for one week and thereafter, utilized in the experiment.
(§2) 2,3,7,8-tetrachlorodibenzo-p-dioxin (TCDD) dissolved in toluene (purity of 95% or more as a result of gas chromatography analysis), manufactured by Chem. Services Inc. in USA, was volatilized with nitrogen to obtain powder. The obtained powder was dissolved in a mixed solvent containing acetone and corn oil with a volume ratio of 1:6. The resulting solution each containing 110, 27.5 and 6.9 μg/kg of TCDD was subcutaneously injected to mice at a volume of 5 ml per body weight. […] The mice were supplied with the feed from 10 days before (pre-administration) to 60 days after administration of TCDD (post-administration).
(§3) Upon completion of the experiment for 60 days, the experimental animals were fasted for 24 hours and anesthetized with ether. Then, they were abdominally incised and blood was gathered from abdominal vena cava. They were sacrificed by the release of blood. Liver, kidneys, testes and epididymides were extracted and all the extracted organs were weighed. Only the testes were separately kept and observed under optical and electron microscopes. For biochemical finding test, serum was separated from blood with a centrifuge and the separated serum was analyzed with an automated blood biochemical analyzer, Dimension (Dupont, USA). Blood was put to another blood gathering bottle and then, analyzed with an automated blood cell analyzer, Celldyn (Abbott, USA).
(§4) The results are expressed as Mean±Standard Deviation values. For statistical analysis of the body weight, feed and water uptake, biochemical findings, hematological findings and the weight of organ in an acute toxicity test, verification was performed by one way analysis of variance (ANOVA) in case of equal distribution. In case significance was recognized in ANOVA, the Student's t-test was performed in the levels of p<0.05 and p<0.01.
For hematological findings, white blood cell (WBC), neutrophil (NEU), lymphocyte (LYM), monocyte (MONO), eosinophil (EOS), basophil (BASO) and red blood cell (RBC) counts, and hemoglobin concentration (HGB), hematocrit (HCT), mean cell volume (MCV), mean corpuscular hemoglobin (MCH), mean corpuscular hemoglobin concentration (MCHC), red blood cell distribution width (RDW) and platelet count (PLT) were measured and the results are as follows.

C57B1/6J mice [2] = experiment: Blood (serum) biochemical changes in mice by a single subcutaneous injection of TCDD; type: in vivo
Description: as §1, §2, §3, §4
For biochemical findings in the serum, the levels of glucose (GLU), GOT, GPT, Triglyceride (TG), high density lipoprotein (HDL-C), low density lipoprotein (LDL-C) and alkaline phosphatase (ALP) in serum were measured and the results are shown in the following.

Clc1cc2c(cc1Cl)Oc1cc(Cl)c(Cl)cc1O2 [TCDD, 2,3,7,8-tetrachlorodibenzo-p-dioxin]
BASO (C57B1/6J mice [1]; TCDD 6.9 μg/kg alone): 0.21 ± 0.12 10^3 | EOS (C57B1/6J mice [1]; TCDD 6.9 μg/kg alone): 0.01 ± 0.01 10^3 | HCT (C57B1/6J mice [1]; TCDD 6.9 μg/kg alone): 43.12 ± 5.04% | HGB (C57B1/6J mice [1]; TCDD 6.9 μg/kg alone): 13.65 ± 1.34 g/dL | LYM (C57B1/6J mice [1]; TCDD 6.9 μg/kg alone): 4.27 ± 2.05 10^3 | MCH (C57B1/6J mice [1]; TCDD 6.9 μg/kg alone): 14.70 ± 0.41 pg | MCHC (C57B1/6J mice [1]; TCDD 6.9 μg/kg alone): 31.76 ± 0.70 g/dL | MCV (C57B1/6J mice [1]; TCDD 6.9 μg/kg alone): 46.33 ± 1.97 fL | MONO (C57B1/6J mice [1]; TCDD 6.9 μg/kg alone): 0.10 ± 0.07 10^3 | NEU (C57B1/6J mice [1]; TCDD 6.9 μg/kg alone): 0.40 ± 0.24 10^3 | PLT (C57B1/6J mice [1]; TCDD 6.9 μg/kg alone): 1140.88 ± 133.39 10^3 | RBC (C57B1/6J mice [1]; TCDD 6.9 μg/kg alone): 9.29 ± 0.85 10^6 | RDW (C57B1/6J mice [1]; TCDD 6.9 μg/kg alone): 20.38 ± 1.21% | WBC (C57B1/6J mice [1]; TCDD 6.9 μg/kg alone): 5.94 ± 1.85 10^3 | BASO (C57B1/6J mice [1]; TCDD 27.5 μg/kg alone): 0.17 ± 0.07 10^3 | EOS (C57B1/6J mice [1]; TCDD 27.5 μg/kg alone): 0.018 ± 0.028 10^3 | HCT (C57B1/6J mice [1]; TCDD 27.5 μg/kg alone): 39.12 ± 3.25 % | HGB (C57B1/6J mice [1]; TCDD 27.5 μg/kg alone): 12.90 ± 1.00 g/dL | LYM (C57B1/6J mice [1]; TCDD 27.5 μg/kg alone): 1.43 ± 0.60** 10^3 | MCH (C57B1/6J mice [1]; TCDD 27.5 μg/kg alone): 14.17 ± 0.40 pg | MCHC (C57B1/6J mice [1]; TCDD 27.5 μg/kg alone): 33.02 ± 0.86 g/dL | MCV (C57B1/6J mice [1]; TCDD 27.5 μg/kg alone): 42.97 ± 0.56 fL | MONO (C57B1/6J mice [1]; TCDD 27.5 μg/kg alone): 0.07 ± 0.04 10^3 | NEU (C57B1/6J mice [1]; TCDD 27.5 μg/kg alone): 2.58 ± 0.97** 10^3 | PLT (C57B1/6J mice [1]; TCDD 27.5 μg/kg alone): 1473.17 ± 110.35** 10^3 | RBC (C57B1/6J mice [1]; TCDD 27.5 μg/kg alone): 9.10 ± 0.71 10^6 | RDW (C57B1/6J mice [1]; TCDD 27.5 μg/kg alone): 20.97 ± 2.27% | WBC (C57B1/6J mice [1]; TCDD 27.5 μg/kg alone): 4.29 ± 1.05 10^3 | ALP (C57B1/6J mice [2]; TCDD 6.9 μg/kg alone): 69.67 ± 8.80 IU/l | GLU (C57B1/6J mice [2]; TCDD 6.9 μg/kg alone): 96.00 ± 15.15 mg/dL | GOT (C57B1/6J mice [2]; TCDD 6.9 μg/kg alone): 55.16 ± 6.65 IU/l | GPT (C57B1/6J mice [2]; TCDD 6.9 μg/kg alone): 21.66 ± 5.39 IU/l | HDL-C (C57B1/6J mice [2]; TCDD 6.9 μg/kg alone): 39.29 ± 9.38 mg/dL | LDL-C (C57B1/6J mice [2]; TCDD 6.9 μg/kg alone): 24.43 ± 11.81 mg/dL | TG (C57B1/6J mice [2]; TCDD 6.9 μg/kg alone): 76.14 ± 14.03 mg/dL | ALP (C57B1/6J mice [2]; TCDD 27.5 μg/kg alone): 65.4 ± 19.05 IU/l | GLU (C57B1/6J mice [2]; TCDD 27.5 μg/kg alone): 28.20 ± 8.23 mg/dL | GOT (C57B1/6J mice [2]; TCDD 27.5 μg/kg alone): 230.40 ± 72.90 IU/l | GPT (C57B1/6J mice [2]; TCDD 27.5 μg/kg alone): 70.4 ± 23.46 IU/l | HDL-C (C57B1/6J mice [2]; TCDD 27.5 μg/kg alone): 21.80 ± 6.76 mg/dL | LDL-C (C57B1/6J mice [2]; TCDD 27.5 μg/kg alone): 43.80 ± 14.99 mg/dL | TG (C57B1/6J mice [2]; TCDD 27.5 μg/kg alone): 92.67 ± 16.79 mg/dL
